Consider 7 molecules from ChEMBL document CHEMBL5465560, “Selectivity Literature for EUbOPEN Chemogenomic Library” (2024).

Each structure is given as a SMILES string.

Assay [1] has as its target Serine/threonine-protein kinase PLK1 (Homo sapiens, UniProt P53350). The experiment in a line: Selectivity interaction (Kinase panel (KiNativ target engagement assay in Jurkat cells)) EUB0001635a PLK1. To be noted: Selectivity number of off-targets 0.0, Selectivity number of targets 233.0, Source Knowledge https://www.sciencedirect.com/science/article/pii/S2451945619300674?via%3Dihub, at 1 µM. The format is cell-based.

Assay [2] deals with Non-receptor tyrosine-protein kinase TYK2 (Homo sapiens, UniProt P29597). The assay is described as follows: Selectivity interaction (KinomeScan (DiscoverX)) EUB0000229b TYK2. The following applies: at 10 µM.
Sequence of Non-receptor tyrosine-protein kinase TYK2 (P29597 whole entry): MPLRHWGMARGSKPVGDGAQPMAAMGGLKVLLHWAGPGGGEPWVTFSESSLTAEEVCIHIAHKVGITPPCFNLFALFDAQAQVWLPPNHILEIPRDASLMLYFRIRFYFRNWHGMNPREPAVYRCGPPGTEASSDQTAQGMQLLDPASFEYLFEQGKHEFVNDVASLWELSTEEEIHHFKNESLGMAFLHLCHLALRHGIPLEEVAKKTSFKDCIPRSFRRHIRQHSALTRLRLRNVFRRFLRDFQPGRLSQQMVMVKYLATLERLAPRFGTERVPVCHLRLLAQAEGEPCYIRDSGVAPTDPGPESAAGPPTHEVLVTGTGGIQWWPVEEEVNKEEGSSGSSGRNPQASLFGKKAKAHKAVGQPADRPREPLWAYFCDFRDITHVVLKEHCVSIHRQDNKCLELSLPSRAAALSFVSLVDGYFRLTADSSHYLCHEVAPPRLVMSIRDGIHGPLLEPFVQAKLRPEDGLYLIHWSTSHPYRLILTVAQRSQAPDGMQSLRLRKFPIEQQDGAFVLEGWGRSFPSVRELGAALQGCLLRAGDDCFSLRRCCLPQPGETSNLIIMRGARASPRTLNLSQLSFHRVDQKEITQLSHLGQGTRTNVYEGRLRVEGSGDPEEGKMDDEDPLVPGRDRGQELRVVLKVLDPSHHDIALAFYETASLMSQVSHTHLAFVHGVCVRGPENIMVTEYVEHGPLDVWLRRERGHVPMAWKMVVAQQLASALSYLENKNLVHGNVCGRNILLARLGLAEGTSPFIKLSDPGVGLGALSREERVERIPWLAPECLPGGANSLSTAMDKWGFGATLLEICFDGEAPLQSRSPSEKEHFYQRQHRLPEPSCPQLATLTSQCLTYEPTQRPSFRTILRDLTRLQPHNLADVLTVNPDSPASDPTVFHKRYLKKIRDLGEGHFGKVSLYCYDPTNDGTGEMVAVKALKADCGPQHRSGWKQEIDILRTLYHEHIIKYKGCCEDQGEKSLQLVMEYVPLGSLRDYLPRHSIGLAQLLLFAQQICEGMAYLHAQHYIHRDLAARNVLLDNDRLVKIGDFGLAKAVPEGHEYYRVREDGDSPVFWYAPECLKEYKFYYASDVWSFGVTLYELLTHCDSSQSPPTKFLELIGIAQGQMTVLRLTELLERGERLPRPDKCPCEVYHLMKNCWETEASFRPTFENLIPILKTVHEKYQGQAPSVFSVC
Another assay has as its target Mu-type opioid receptor (Homo sapiens, UniProt P35372). The assay is described as follows: Selectivity interaction (Panel of kinases, GPCRs, ion channels and transporters (enzymatic assay)) EUB0000266bCl OPRM1.
Assay [3] addresses RAC-beta serine/threonine-protein kinase (Homo sapiens) (UniProt P31751). The experiment in a line: Selectivity interaction (KinomeScan (DiscoverX)) EUB0001619a AKT2. To be noted: at 1 µM.
Assay [4] addresses Serine/threonine-protein kinase N1 (Homo sapiens, UniProt Q16512). The experiment in a line: Selectivity interaction (ActivX KiNativ screen (kinase selectivity in THP-1 cell lysates)) EUB0000639a PKN1. The class given is subcellular. To be noted: lysate.
For assay [5], the target named is T1, Serine/threonine-protein kinase LATS1 (Homo sapiens) (UniProt O95835).
T1 sequence (whole entry): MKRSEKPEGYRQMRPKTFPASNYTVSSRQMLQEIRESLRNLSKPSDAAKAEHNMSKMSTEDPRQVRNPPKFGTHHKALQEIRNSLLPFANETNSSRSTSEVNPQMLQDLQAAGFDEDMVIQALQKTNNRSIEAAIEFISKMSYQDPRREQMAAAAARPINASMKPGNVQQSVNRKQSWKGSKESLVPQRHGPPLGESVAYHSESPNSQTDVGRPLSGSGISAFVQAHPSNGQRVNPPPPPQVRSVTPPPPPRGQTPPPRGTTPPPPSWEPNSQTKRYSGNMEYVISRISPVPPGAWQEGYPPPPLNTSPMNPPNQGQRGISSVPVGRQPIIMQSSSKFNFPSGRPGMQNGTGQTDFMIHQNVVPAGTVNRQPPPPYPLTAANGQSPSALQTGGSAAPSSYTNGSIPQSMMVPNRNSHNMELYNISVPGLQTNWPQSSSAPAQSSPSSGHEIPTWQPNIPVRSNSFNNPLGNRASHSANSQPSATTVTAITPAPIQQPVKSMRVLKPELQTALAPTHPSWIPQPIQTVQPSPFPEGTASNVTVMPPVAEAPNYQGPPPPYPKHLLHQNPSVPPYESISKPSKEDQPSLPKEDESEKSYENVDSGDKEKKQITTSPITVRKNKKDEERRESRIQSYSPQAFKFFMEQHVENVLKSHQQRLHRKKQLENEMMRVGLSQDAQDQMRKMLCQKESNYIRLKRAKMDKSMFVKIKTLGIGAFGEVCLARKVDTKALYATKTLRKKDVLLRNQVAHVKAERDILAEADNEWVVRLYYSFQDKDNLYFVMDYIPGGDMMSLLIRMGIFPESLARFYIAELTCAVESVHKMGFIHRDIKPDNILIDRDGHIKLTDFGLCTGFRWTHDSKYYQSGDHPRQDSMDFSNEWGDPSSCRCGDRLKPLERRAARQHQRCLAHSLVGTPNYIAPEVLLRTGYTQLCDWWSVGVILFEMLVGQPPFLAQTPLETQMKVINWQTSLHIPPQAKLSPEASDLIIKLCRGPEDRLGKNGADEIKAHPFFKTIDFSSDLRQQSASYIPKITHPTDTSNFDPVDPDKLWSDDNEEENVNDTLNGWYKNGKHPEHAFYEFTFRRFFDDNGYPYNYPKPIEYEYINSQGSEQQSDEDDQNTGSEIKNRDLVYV
The assay is described as follows: Selectivity interaction (ActivX KiNativ screen (kinase selectivity in THP-1 cell lysates)) EUB0000639a LATS1. The format is subcellular. To be noted: lysate, at 0.2 µM.

The target of assay [6] is Casein kinase II subunit alpha (Homo sapiens, UniProt P68400). The assay is described as follows: Selectivity interaction (Kinase panel (Enzyme activity assay)) EUB0000612a CSNK2A1.
Sequence of Casein kinase II subunit alpha (P68400 whole entry): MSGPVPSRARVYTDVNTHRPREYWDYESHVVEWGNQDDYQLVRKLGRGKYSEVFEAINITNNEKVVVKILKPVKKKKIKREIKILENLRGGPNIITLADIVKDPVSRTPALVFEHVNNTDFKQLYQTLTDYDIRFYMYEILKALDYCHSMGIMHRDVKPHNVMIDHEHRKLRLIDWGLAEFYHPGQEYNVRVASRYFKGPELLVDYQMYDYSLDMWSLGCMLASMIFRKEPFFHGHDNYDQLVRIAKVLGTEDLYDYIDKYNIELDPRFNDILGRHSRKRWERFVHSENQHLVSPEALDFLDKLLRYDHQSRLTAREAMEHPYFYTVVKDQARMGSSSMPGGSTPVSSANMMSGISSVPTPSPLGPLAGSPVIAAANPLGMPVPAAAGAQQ
The target of assay [7] is T2, Histone-lysine N-methyltransferase SUV39H1 (Homo sapiens) (UniProt O43463).
T2 sequence (whole entry): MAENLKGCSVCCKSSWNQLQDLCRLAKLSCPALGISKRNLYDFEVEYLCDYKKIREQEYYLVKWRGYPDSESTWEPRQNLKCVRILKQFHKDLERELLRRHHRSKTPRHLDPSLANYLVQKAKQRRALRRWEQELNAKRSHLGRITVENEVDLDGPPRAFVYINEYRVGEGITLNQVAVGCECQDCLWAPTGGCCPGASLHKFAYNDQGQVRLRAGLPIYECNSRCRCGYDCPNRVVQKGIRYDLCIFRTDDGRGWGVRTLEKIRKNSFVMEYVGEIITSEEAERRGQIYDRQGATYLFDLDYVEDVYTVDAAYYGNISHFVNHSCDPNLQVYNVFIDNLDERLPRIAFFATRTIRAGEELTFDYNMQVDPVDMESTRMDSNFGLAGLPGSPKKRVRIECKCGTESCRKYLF
The experiment in a line: Selectivity interaction (Transferase panel (protein, RNA, and DNA methyltransferases. and EP300 (acetyltransferase))) EUB0000270b SUV39H1.

Sequence of Serine/threonine-protein kinase N1 (Q16512 2-942 limits assumed): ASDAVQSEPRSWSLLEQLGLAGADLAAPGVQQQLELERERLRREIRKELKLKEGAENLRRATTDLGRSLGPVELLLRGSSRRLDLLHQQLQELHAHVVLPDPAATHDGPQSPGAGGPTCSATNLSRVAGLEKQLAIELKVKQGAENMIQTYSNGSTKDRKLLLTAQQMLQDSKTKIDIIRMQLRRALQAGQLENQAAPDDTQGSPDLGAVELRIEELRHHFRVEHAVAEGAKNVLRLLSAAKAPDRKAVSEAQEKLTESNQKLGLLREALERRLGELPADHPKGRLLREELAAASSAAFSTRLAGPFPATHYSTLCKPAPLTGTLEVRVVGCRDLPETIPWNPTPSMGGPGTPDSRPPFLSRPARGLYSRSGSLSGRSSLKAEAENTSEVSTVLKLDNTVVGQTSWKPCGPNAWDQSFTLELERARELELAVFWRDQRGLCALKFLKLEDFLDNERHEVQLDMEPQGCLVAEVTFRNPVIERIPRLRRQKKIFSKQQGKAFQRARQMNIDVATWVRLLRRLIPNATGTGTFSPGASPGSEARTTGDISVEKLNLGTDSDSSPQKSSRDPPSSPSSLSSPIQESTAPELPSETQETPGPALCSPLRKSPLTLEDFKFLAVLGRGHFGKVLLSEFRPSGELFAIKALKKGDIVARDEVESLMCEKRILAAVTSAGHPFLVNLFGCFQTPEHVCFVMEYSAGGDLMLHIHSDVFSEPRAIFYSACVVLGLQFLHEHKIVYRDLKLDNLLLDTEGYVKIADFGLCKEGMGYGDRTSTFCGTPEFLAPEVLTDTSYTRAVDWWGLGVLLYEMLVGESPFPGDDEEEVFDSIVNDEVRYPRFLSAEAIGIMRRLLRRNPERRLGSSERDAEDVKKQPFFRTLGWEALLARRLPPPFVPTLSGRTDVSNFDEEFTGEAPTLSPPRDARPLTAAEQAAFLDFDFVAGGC
Sequence of Serine/threonine-protein kinase PLK1 (P53350 whole entry): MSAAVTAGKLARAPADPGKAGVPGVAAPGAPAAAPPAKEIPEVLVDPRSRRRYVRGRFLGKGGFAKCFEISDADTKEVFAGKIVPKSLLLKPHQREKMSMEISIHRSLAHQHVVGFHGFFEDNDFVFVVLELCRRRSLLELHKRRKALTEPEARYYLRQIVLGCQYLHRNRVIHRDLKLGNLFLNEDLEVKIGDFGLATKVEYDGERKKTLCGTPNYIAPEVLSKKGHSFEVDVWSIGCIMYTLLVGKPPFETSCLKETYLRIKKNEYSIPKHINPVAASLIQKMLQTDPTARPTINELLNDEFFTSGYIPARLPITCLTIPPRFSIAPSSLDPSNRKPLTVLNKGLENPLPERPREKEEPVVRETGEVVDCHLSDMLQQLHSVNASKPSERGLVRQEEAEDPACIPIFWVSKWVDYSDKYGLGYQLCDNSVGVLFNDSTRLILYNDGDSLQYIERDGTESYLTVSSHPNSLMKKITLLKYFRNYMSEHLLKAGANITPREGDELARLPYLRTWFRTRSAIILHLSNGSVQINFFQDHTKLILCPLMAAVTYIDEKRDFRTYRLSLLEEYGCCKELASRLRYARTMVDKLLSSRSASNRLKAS
Sequence of Mu-type opioid receptor (P35372 whole entry): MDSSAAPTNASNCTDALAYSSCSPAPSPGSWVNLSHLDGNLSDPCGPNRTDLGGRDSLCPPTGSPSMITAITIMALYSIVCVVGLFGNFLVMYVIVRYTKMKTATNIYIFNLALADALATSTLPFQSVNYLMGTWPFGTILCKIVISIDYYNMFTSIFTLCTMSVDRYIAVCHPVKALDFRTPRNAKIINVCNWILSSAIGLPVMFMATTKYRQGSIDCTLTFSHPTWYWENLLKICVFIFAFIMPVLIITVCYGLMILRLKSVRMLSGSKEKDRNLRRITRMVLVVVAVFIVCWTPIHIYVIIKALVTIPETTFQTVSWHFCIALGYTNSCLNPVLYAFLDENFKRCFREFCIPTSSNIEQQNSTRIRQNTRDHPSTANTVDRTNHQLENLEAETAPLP
Sequence of RAC-beta serine/threonine-protein kinase (Homo sapiens) (P31751 whole entry): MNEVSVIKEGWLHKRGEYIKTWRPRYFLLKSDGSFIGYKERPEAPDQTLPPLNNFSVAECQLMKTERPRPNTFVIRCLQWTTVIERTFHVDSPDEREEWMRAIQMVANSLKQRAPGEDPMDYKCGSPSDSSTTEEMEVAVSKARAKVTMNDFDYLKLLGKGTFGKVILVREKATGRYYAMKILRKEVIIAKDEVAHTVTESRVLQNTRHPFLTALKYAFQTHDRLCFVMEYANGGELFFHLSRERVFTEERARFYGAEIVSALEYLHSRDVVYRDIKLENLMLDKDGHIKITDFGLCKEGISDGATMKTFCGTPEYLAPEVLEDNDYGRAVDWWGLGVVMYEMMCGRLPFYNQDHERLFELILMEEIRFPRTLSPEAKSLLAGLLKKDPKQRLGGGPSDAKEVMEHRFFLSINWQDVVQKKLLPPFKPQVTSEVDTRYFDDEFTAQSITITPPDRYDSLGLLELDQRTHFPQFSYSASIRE

As for `C=CC(=O)Nc1ccc(C(=O)Nc2[nH]nc3c2CN(C(=O)N[C@H](CN(C)C)c2ccccc2)C3(C)C)cc1`, the % of engagement in assay [1] worked out at 8.1%.

With `COc1cc(N(C)c2ccnc3ccc(C(F)(F)F)cc23)cc(OC)c1OC`, the % binding in assay [2] turned out to be 99%. In turn, `CCn1c(-c2nc3cc(C(=O)N4CCCC(N)C4)ccc3n2C)cc2ccccc21` (stereo not drawn) yielded a pXC50 on Mu-type opioid receptor of under 4 M.

The molecule `N#Cc1cccc(-c2c[nH]c3ncnc(N4CCOCC4)c23)c1` showed a % of control in assay [3] of 100%. Regarding `CC[C@@H]1[C@H](F)C(=O)N[C@@H]1COc1nccc2cc(C(N)=O)c(OC)cc12` [ZIMLOVISERTIB], the % of inhibition in assay [4] (at 0.01 µM) was 8.7%; in assay [4] (at 0.04 µM) it was 3.4%; in assay [4] (at 0.2 µM), 5%; in assay [4] (at 1 µM), 5.9%; in assay [4] (at 5 µM) it was 34.9%; in assay [5], -82.2%. Usually IC50 stands for the midpoint of a concentration-inhibition curve. Take `CCc1cccc(CC)c1NC(=O)c1nn(C)c2c1CCc1cnc(Nc3ccc(C(=O)NC4CCN(C)CC4)cc3OC(F)(F)F)nc1-2`: half-maximal inhibition in assay [6] (IC50) was put at 5.7 µM. Turning to `Cc1cc(CN)cc(C)c1-c1ncn(C)c1-c1cncn1C`, the % activity in assay [7] (at 1 µM) is over 90%; in assay [7] (at 10 µM), over 80%.
